Activity calls are given as the source filed them. Cut-off read from the data, not from the text of the source, for most assays here: actives have a measured Kd and inactives only a lower limit.
Columns and labels:
[1] = biological target: Non-receptor tyrosine-protein kinase TYK2 (Homo sapiens, UniProt P29597)
[2] = biological target: T1, Non-receptor tyrosine-protein kinase TNK1 (Homo sapiens, UniProt Q13470)
T1 sequence (Q13470 whole entry): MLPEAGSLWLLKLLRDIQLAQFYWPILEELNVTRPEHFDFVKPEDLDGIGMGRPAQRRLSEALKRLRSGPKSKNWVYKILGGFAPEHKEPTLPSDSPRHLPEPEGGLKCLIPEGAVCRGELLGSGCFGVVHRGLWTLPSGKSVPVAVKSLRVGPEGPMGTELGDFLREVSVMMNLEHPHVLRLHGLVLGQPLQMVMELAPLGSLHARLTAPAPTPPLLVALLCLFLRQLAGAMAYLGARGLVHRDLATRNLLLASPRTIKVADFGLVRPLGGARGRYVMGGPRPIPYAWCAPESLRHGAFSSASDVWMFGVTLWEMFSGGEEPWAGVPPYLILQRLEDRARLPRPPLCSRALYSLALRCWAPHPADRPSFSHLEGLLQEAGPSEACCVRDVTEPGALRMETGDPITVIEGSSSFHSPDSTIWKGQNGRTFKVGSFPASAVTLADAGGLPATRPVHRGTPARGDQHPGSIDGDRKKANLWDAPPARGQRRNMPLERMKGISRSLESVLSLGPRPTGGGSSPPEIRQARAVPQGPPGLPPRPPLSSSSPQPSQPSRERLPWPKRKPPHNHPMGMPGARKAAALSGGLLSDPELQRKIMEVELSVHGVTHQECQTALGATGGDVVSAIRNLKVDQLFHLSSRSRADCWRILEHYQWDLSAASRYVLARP

[3] = biological target: T2, EKC/KEOPS complex subunit TP53RK (Homo sapiens, UniProt Q96S44)
T2 sequence (Q96S44 whole entry): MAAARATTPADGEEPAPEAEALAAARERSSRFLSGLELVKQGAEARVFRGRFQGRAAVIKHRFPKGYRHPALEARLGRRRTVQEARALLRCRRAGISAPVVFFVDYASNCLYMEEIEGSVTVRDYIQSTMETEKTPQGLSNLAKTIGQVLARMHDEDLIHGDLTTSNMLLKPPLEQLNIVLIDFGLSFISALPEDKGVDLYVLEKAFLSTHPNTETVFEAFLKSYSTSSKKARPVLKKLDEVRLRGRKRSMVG

[4] = biological target: Mitogen-activated protein kinase kinase kinase kinase 5 (Homo sapiens, UniProt Q9Y4K4)
[5] = biological target: Ribosomal protein S6 kinase beta-1 (Homo sapiens, UniProt P23443)
Ribosomal protein S6 kinase beta-1, sequence (P23443 whole entry): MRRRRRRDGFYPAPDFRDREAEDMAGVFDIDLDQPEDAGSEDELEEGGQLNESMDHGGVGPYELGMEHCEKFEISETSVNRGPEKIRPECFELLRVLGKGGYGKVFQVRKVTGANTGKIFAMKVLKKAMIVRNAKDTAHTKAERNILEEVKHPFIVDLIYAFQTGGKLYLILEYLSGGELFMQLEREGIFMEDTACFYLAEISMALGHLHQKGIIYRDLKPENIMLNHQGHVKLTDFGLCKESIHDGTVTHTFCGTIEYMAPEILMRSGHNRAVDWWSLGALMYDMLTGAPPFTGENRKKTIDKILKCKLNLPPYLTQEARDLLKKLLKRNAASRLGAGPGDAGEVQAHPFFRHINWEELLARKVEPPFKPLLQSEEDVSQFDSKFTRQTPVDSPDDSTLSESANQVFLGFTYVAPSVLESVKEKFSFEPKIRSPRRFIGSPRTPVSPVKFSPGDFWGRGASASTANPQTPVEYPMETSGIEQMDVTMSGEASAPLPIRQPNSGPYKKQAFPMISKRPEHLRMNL

[6] = biological target: T3, Serine/threonine-protein kinase Nek3 (Homo sapiens, UniProt P51956)
T3 sequence (P51956 whole entry): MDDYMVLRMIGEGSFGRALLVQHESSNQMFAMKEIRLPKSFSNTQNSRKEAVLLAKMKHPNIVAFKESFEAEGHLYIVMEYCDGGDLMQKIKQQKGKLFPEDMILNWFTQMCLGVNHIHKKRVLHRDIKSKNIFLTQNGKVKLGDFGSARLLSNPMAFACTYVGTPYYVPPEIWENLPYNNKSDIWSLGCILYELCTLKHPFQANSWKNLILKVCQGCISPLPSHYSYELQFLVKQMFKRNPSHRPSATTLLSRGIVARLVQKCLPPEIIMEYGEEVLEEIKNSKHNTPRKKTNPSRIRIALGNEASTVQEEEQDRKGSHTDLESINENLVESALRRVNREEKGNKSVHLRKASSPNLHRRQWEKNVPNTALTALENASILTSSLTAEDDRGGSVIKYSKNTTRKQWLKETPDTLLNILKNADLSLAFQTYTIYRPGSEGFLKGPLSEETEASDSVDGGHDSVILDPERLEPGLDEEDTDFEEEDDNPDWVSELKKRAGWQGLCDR

[7] = biological target: T4, Adenine phosphoribosyltransferase (Homo sapiens, UniProt P07741)
T4 sequence (P07741 whole entry): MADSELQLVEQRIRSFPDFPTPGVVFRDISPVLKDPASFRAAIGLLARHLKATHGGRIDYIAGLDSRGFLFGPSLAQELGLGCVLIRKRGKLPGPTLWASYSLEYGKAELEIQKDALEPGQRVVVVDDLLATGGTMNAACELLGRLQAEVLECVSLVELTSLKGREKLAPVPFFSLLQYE

[8] = biological target: Tyrosine-protein kinase Fyn (Homo sapiens, UniProt P06241)
Tyrosine-protein kinase Fyn, sequence (P06241 whole entry): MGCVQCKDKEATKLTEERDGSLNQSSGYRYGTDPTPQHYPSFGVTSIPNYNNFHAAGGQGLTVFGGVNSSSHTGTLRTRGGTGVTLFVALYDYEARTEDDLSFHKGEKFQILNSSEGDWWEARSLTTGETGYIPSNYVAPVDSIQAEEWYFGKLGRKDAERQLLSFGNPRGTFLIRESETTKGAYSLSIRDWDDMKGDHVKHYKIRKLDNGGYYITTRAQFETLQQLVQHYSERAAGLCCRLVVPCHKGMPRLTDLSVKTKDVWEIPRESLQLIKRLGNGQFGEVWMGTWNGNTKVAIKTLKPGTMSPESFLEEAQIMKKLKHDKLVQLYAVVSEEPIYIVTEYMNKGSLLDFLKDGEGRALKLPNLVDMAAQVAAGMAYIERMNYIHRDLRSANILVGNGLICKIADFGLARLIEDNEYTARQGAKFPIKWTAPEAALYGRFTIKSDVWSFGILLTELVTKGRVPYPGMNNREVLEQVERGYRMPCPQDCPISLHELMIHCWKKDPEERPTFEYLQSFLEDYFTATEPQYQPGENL

[9] = biological target: Mitogen-activated protein kinase 7 (Homo sapiens, UniProt Q13164)
[10] = biological target: STE20-like serine/threonine-protein kinase (Homo sapiens, UniProt Q9H2G2)
STE20-like serine/threonine-protein kinase, sequence (Q9H2G2 whole entry): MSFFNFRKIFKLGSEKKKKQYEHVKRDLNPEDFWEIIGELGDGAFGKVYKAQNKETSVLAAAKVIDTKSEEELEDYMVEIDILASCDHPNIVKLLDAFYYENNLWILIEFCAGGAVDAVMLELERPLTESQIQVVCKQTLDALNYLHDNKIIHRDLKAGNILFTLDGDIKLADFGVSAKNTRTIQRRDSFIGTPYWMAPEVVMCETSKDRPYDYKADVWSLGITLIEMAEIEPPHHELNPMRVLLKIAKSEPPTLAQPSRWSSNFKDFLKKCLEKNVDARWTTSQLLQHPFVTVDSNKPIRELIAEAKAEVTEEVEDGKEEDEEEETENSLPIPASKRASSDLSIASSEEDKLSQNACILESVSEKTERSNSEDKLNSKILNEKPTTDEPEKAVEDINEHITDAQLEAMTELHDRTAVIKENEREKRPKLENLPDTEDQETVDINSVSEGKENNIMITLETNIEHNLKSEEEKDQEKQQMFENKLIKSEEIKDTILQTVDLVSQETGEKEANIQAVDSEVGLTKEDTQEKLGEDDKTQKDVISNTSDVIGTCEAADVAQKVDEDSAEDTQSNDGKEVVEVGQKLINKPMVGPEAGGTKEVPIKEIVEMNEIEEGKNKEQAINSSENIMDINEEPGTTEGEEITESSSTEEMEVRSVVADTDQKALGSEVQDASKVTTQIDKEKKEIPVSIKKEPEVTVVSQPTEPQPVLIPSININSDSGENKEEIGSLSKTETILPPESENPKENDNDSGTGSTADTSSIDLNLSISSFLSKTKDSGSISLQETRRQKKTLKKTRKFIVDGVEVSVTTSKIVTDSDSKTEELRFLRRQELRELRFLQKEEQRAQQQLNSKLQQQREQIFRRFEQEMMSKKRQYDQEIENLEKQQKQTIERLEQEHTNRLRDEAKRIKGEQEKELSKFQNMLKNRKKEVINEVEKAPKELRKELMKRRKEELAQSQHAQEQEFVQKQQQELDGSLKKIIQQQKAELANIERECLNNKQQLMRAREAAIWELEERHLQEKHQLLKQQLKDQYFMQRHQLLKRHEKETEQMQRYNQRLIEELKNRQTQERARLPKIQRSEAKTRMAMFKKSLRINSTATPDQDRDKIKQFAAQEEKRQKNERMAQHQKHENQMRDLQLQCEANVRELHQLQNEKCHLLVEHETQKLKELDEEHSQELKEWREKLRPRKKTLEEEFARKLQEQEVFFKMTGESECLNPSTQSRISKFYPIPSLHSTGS

ADP/ATP translocase 2 = biological target: T5, ADP/ATP translocase 2 (Homo sapiens, UniProt P05141)
T5 sequence (P05141 whole entry): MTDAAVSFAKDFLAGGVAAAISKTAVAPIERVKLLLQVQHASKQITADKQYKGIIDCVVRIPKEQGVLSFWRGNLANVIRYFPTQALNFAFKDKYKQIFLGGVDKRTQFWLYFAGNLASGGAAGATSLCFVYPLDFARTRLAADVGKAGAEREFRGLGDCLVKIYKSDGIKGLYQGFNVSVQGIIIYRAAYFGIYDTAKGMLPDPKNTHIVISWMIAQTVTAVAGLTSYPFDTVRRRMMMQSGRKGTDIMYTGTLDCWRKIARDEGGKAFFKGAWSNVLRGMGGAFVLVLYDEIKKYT

[11] = biological target: Ribosomal protein S6 kinase alpha-1 (Homo sapiens, UniProt Q15418)
Ephrin type-A receptor 4 = Ephrin type-A receptor 4 (Homo sapiens, UniProt P54764)
[12] = biological target: Calcium/calmodulin-dependent protein kinase kinase 2 (Homo sapiens, UniProt Q96RR4)
Calcium/calmodulin-dependent protein kinase kinase 2, sequence (Q96RR4 whole entry): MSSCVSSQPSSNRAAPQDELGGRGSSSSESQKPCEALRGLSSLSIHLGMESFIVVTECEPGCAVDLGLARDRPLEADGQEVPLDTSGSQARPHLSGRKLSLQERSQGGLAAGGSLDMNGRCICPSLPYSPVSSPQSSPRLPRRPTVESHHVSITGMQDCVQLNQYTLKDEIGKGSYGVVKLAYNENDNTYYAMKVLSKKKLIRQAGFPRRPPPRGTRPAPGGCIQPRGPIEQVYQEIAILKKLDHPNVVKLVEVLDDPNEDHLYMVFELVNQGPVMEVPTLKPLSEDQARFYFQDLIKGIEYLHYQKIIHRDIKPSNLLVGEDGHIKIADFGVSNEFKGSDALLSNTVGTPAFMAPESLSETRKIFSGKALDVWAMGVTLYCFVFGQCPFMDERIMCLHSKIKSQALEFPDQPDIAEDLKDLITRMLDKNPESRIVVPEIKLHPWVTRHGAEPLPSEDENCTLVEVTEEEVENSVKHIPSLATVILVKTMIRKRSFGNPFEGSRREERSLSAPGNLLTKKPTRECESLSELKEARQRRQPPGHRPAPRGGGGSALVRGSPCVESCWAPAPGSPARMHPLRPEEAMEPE

[13] = biological target: Ribosomal protein S6 kinase alpha-4 (Homo sapiens, UniProt O75676)
Ribosomal protein S6 kinase alpha-4, sequence (O75676 whole entry): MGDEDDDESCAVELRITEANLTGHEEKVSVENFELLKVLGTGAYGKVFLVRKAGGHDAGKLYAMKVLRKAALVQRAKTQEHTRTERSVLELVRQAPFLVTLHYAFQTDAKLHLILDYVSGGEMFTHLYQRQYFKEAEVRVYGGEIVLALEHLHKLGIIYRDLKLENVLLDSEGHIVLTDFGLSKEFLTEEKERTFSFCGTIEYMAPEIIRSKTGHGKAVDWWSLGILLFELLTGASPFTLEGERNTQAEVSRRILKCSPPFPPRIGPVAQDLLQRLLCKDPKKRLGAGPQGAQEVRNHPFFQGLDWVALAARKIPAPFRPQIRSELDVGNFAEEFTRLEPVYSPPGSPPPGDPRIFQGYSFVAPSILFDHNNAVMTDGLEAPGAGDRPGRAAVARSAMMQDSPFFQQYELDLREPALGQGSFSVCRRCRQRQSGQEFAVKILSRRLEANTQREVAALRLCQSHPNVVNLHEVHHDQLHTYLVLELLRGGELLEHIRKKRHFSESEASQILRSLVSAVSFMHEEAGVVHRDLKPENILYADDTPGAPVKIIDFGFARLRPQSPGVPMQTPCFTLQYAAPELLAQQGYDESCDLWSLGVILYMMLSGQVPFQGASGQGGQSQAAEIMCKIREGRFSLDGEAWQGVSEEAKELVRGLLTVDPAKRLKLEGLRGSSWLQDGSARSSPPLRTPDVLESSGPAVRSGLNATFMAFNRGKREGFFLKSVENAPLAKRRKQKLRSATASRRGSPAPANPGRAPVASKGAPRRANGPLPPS

Aurora kinase B = Aurora kinase B (Homo sapiens, UniProt Q96GD4)
Note: in the data inactive means no Kd found up to 30 µM.

Non-receptor tyrosine-protein kinase TYK2, sequence (P29597 whole entry): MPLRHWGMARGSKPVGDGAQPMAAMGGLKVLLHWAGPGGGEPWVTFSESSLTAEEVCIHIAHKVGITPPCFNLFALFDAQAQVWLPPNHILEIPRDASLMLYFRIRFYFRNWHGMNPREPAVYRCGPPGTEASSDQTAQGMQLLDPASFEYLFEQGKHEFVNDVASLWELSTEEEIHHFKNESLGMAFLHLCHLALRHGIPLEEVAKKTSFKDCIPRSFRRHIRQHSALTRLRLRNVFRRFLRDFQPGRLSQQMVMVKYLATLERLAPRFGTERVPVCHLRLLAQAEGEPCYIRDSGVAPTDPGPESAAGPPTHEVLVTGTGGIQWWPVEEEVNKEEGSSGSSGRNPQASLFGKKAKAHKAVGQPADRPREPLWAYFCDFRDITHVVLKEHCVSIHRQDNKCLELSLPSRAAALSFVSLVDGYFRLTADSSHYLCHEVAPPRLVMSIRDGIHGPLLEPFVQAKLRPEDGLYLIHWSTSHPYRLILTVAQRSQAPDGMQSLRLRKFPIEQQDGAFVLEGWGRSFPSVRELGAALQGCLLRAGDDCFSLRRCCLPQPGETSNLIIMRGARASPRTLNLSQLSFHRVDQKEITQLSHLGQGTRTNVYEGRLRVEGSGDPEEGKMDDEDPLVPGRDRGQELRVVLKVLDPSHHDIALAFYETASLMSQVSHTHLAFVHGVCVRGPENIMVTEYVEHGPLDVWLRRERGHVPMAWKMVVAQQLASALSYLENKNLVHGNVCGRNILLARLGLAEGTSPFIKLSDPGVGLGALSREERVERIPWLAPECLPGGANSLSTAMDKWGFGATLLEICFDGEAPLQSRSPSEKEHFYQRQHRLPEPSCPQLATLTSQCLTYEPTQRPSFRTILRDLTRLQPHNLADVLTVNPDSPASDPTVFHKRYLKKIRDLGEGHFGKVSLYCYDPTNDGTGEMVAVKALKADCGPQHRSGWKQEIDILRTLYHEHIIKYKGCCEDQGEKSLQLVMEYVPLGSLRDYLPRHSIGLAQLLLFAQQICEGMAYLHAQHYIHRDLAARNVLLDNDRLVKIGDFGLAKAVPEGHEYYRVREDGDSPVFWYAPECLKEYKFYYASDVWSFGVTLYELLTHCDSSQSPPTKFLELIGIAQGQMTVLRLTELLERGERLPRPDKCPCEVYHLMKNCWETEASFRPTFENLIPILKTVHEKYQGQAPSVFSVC

| Structure (SMILES) | Kd [1] | Kd [2] | Kd [3] | Kd [4] | Kd [5] | Kd [6] | Kd [7] | Kd [8] | Kd [9] | Kd [10] | Kd (ADP/ATP translocase 2) | Kd [11] | Kd (Ephrin type-A receptor 4) | Kd [12] | Kd [13] | Kd (Aurora kinase B) |
| --- | --- | --- | --- | --- | --- | --- | --- | --- | --- | --- | --- | --- | --- | --- | --- | --- |
| COc1cc2nccc(Oc3ccc(NC(=O)C4(C(=O)Nc5ccc(F)cc5)CC4)cc3)c2cc1OC [CABOZANTINIB] | > 30 µM (inactive) | > 30 µM (inactive) | > 30 µM (inactive) | > 30 µM (inactive) | > 30 µM (inactive) | > 30 µM (inactive) | > 30 µM (inactive) | > 30 µM (inactive) | > 30 µM (inactive) | > 30 µM (inactive) | > 30 µM (inactive) | > 30 µM (inactive) | > 30 µM (inactive) | > 30 µM (inactive) | > 30 µM (inactive) |  |
| CN(c1ncccc1CNc1nc(Nc2ccc3c(c2)CC(=O)N3)ncc1C(F)(F)F)S(C)(=O)=O [PF-00562271] |  | > 30 µM (inactive) | > 30 µM (inactive) |  |  | > 30 µM (inactive) | > 30 µM (inactive) |  |  |  | > 30 µM (inactive) | > 30 µM (inactive) | > 30 µM (inactive) |  | > 30 µM (inactive) | 1.04 µM (active) |
| C=CCn1c(=O)c2cnc(Nc3ccc(N4CCN(C)CC4)cc3)nc2n1-c1cccc(C(C)(C)O)n1 [ADAVOSERTIB] | > 30 µM (inactive) | > 30 µM (inactive) | > 30 µM (inactive) |  | > 30 µM (inactive) | 0.837 µM (active) | > 30 µM (inactive) |  | > 30 µM (inactive) | > 30 µM (inactive) | > 30 µM (inactive) | > 30 µM (inactive) | > 30 µM (inactive) | > 30 µM (inactive) | > 30 µM (inactive) |  |
| COc1cc2c(Oc3ccc4[nH]c(C)cc4c3F)ncnc2cc1OCCCN1CCCC1 [CEDIRANIB] |  |  | > 30 µM (inactive) |  |  |  | > 30 µM (inactive) | > 30 µM (inactive) |  |  | > 30 µM (inactive) |  |  |  |  |  |
| CC1(C)CNc2cc(NC(=O)c3cccnc3NCc3ccncc3)ccc21 [MOTESANIB] |  |  | > 30 µM (inactive) |  |  |  | > 30 µM (inactive) |  |  | > 30 µM (inactive) | > 30 µM (inactive) |  |  |  |  |  |
| COc1cc(Nc2ncc(F)c(Nc3ccc4c(n3)N(COP(=O)(O)O)C(=O)C(C)(C)O4)n2)cc(OC)c1OC [FOSTAMATINIB] | > 30 µM (inactive) | 0.16 µM (active) | > 30 µM (inactive) | > 30 µM (inactive) | > 30 µM (inactive) | > 30 µM (inactive) | > 30 µM (inactive) | > 30 µM (inactive) | > 30 µM (inactive) | > 30 µM (inactive) | > 30 µM (inactive) | > 30 µM (inactive) | > 30 µM (inactive) | > 30 µM (inactive) | > 30 µM (inactive) |  |
| O=C(O)c1ccc2c(c1)nc(Nc1cccc(Cl)c1)c1ccncc12 [SILMITASERTIB] | 2.38 µM (active) | > 30 µM (inactive) |  | > 30 µM (inactive) | > 30 µM (inactive) | > 30 µM (inactive) | > 30 µM (inactive) | > 30 µM (inactive) | > 30 µM (inactive) | 0.22 µM (active) | > 30 µM (inactive) | 5.92 µM (active) | > 30 µM (inactive) | > 30 µM (inactive) | > 30 µM (inactive) |  |
| CN(C)C/C=C/C(=O)Nc1cc2c(Nc3ccc(F)c(Cl)c3)ncnc2cc1O[C@H]1CCOC1 [AFATINIB] |  |  | > 30 µM (inactive) |  |  |  | > 30 µM (inactive) |  |  |  | > 30 µM (inactive) |  |  |  |  |  |
| Cn1cnc2c(F)c(Nc3ccc(Br)cc3Cl)c(C(=O)NOCCO)cc21 [SELUMETINIB] |  |  | > 30 µM (inactive) |  |  |  | > 30 µM (inactive) |  |  |  | > 30 µM (inactive) |  |  |  |  |  |
| Cn1c(=O)n(-c2ccc(C(C)(C)C#N)cc2)c2c3cc(-c4cnc5ccccc5c4)ccc3ncc21 [DACTOLISIB] | > 30 µM (inactive) | > 30 µM (inactive) | > 30 µM (inactive) |  |  | > 30 µM (inactive) | > 30 µM (inactive) |  | > 30 µM (inactive) | > 30 µM (inactive) | > 30 µM (inactive) | > 30 µM (inactive) | > 30 µM (inactive) | > 30 µM (inactive) | > 30 µM (inactive) |  |
| COc1cc2c(N3CCN(C(=O)Nc4ccc(OC(C)C)cc4)CC3)ncnc2cc1OCCCN1CCCCC1 [TANDUTINIB] |  |  | > 30 µM (inactive) |  |  |  | > 30 µM (inactive) |  |  |  | > 30 µM (inactive) |  |  |  |  |  |
| O=S(=O)(c1cccc2cnccc12)N1CCCNCC1 [FASUDIL] |  | > 30 µM (inactive) | > 30 µM (inactive) |  |  | > 30 µM (inactive) | > 30 µM (inactive) | > 30 µM (inactive) | > 30 µM (inactive) |  | > 30 µM (inactive) | > 30 µM (inactive) | > 30 µM (inactive) | > 30 µM (inactive) | > 30 µM (inactive) |  |
| CCN(CCCOc1ccc2c(Nc3cc(CC(=O)Nc4cccc(F)c4)n[nH]3)ncnc2c1)CCOP(=O)(O)O [BARASERTIB] | > 30 µM (inactive) | > 30 µM (inactive) | > 30 µM (inactive) | 2.24 µM (active) | > 30 µM (inactive) | > 30 µM (inactive) | > 30 µM (inactive) |  | > 30 µM (inactive) | > 30 µM (inactive) | > 30 µM (inactive) | > 30 µM (inactive) | > 30 µM (inactive) |  | > 30 µM (inactive) |  |
| C[C@@]1(C(=O)Nc2ccc(F)nc2)CCCN1c1nc(Nc2cc(C3CC3)n[nH]2)c2cccn2n1 [BMS-754807] |  |  | > 30 µM (inactive) |  |  |  | > 30 µM (inactive) |  |  |  | > 30 µM (inactive) |  |  |  |  |  |
| O=c1[nH]c([C@@H]2CCCN2)nc2c1oc1ccc(Cl)cc12 | > 30 µM (inactive) | > 30 µM (inactive) | > 30 µM (inactive) | > 30 µM (inactive) |  | > 30 µM (inactive) |  | > 30 µM (inactive) |  | > 30 µM (inactive) | > 30 µM (inactive) | > 30 µM (inactive) | > 30 µM (inactive) | > 30 µM (inactive) | > 30 µM (inactive) | > 30 µM (inactive) |
| C[C@]1(O)C[C@@H](c2nc(-c3ccc4ccc(-c5ccccc5)nc4c3)c3c(N)nccn32)C1 [LINSITINIB] |  | > 30 µM (inactive) | > 30 µM (inactive) | 0.614 µM (active) |  | > 30 µM (inactive) |  |  | > 30 µM (inactive) |  | > 30 µM (inactive) | > 30 µM (inactive) | > 30 µM (inactive) | > 30 µM (inactive) | > 30 µM (inactive) |  |
